These results are taken from US8044079B2, “Substituted oxindole derivatives, medicaments containing said derivatives and use thereof” (Abbott GmbH & Co. KG, priority 2005, dated 2011).

For the assay, the target named is T1, human vasopressin V1b receptor (Homo sapiens, UniProt P47901).
T1 construct: expressed in transfected cells; host or cells: CHO-K1 (cell line hV1b_3H2_CHO), membrane preparation
T1 sequence (P47901 1-424): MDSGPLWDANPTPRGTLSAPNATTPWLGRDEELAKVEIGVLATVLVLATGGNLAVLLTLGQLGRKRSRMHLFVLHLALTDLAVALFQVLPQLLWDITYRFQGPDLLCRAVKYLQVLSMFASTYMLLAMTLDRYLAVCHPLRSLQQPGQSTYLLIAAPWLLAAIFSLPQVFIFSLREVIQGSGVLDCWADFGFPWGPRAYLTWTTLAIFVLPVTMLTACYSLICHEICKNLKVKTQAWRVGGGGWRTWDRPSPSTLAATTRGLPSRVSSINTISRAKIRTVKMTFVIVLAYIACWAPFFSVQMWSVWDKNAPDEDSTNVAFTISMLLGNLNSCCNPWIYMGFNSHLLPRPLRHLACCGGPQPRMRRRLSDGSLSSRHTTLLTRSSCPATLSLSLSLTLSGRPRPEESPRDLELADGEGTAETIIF
Briefly: Vasopressin V1b receptor binding test. The settings on record: membranes of CHO-K1 cells with human V1b receptor, displacement of 1.5 nM 3H-AVP; for compounds with more than one stereogenic center the diastereomer with greater affinity. A digest of the protocol:
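Radioligand displacement on membranes carrying human V1b receptor in 50 mM tris, 10 mM MgCl2, 0.1% BSA, pH 7.4, 2% DMSO final; 60 min at room temperature, nonspecific binding with 1 μM AVP. Free ligand removed by filtration, bound counted by liquid scintillation, Ki from nonlinear regression of triplicates.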

Compound `CNCc1ccc(OC)c(C2(NCc3ncco3)C(=O)N(S(=O)(=O)c3ccc(OC)cc3)c3ccc(Cl)cc32)c1` (stereo not drawn) [Example 129, 5-Chloro-1-(4-methoxybenzenesulfonyl)-3-(2-methoxy-5-methylaminomethylphenyl)-3-[(oxazol-2-ylmethyl)amino]-1,3-dihydroindol-2-one] displayed a Ki of 10 to 100 nM.

`COc1ccc(S(=O)(=O)N2C(=O)C(c3cc(CNCC(F)(F)F)ccc3OC)(N3CCC[C@H]3c3ncco3)c3cc(Cl)ccc32)cc1` (stereo partly drawn) [Example 130, 5-Chloro-1-(4-methoxybenzenesulfonyl)-3-{2-methoxy-5-[(2,2,2-trifluoroethylamino)methyl]phenyl}-3-((S)-2-oxazol-2-yl-pyrrolidin-1-yl)-1,3-dihydroindol-2-one] had a Ki of 10 to 100 nM.

`CCNCc1ccc(C2(N3CCC[C@H]3c3ncco3)C(=O)N(S(=O)(=O)c3ccc(OC)cc3)c3ccc(Cl)cc32)c(OC)c1` (stereo partly drawn) [Example 131, 5-Chloro-3-(4-ethylaminomethyl-2-methoxyphenyl)-1-(4-methoxybenzenesulfonyl)-3-((S)-2-oxazol-2-yl-pyrrolidin-1-yl)-1,3-dihydroindol-2-one] registered an inhibition constant Ki of 10 to 100 nM.

`CCCNCc1ccc(OC)c(C2(N3CCCC3c3nccs3)C(=O)N(S(=O)(=O)c3ccc(OC)cc3)c3ccc(Cl)cc32)c1` (stereo not drawn) [Example 132, 5-Chloro-1-(4-methoxybenzenesulfonyl)-3-(2-methoxy-5-propylaminomethylphenyl)-3-(2-thiazol-2-yl-pyrrolidin-1-yl)-1,3-dihydroindol-2-one] registered a Ki of 10 to 100 nM.

In turn, `COc1ccc(S(=O)(=O)N2C(=O)C(N[C@@H](C)c3ncco3)(c3cc(CN(C)C)ccc3OC)c3cc(Cl)ccc32)cc1` (stereo partly drawn) [Example 133, 5-Chloro-3-(5-dimethylaminomethyl-2-methoxyphenyl)-1-(4-methoxybenzenesulfonyl)-3-((S)-1-oxazol-2-yl-ethylamino)-1,3-dihydroindol-2-one] displayed a Ki of 10 to 100 nM.

For the compound `CCCNCc1ccc(OC)c(C2(N[C@@H](C)c3ncco3)C(=O)N(S(=O)(=O)c3ccc(OC)cc3)c3ccc(Cl)cc32)c1` (stereo partly drawn) [Example 134, 5-Chloro-1-(4-methoxybenzenesulfonyl)-3-(2-methoxy-5-propylaminomethylphenyl)-3-((S)-1-oxazol-2-yl-ethylamino)-1,3-dihydroindol-2-one], the Ki is 10 to 100 nM.

Turning to `COc1ccc(S(=O)(=O)N2C(=O)C(N[C@@H](C)c3ncco3)(c3cc(CN4CCNCC4)ccc3OC)c3cc(Cl)ccc32)cc1` (stereo partly drawn) [Example 135, 5-Chloro-1-(4-methoxybenzenesulfonyl)-3-(2-methoxy-5-(piperazin-1-ylmethyl)phenyl)-3-((S)-1-oxazol-2-yl-ethylamino)-1,3-dihydroindol-2-one], the Ki is under 10 nM.

Compound `COc1ccc(S(=O)(=O)N2C(=O)C(c3ccc(CNC(C)C)cc3OC)(N3CCC[C@H]3c3ncco3)c3cc(Cl)ccc32)cc1` (stereo partly drawn) [Example 136, 5-Chloro-3-[4-(isopropylaminomethyl)-2-methoxyphenyl]-1-(4-methoxybenzenesulfonyl)-3-((S)-2-oxazol-2-yl-pyrrolidin-1-yl)-1,3-dihydroindol-2-one] registered an inhibition constant Ki of 10 to 100 nM.

Turning to `COc1ccc(S(=O)(=O)N2C(=O)C(c3ccc(CNCCO)cc3OC)(N3CCC[C@H]3c3ncco3)c3cc(Cl)ccc32)cc1` (stereo partly drawn) [Example 137, 5-Chloro-3-{4-[(2-hydroxyethylamino)methyl]-2-methoxyphenyl}-1-(4-methoxybenzenesulfonyl)-3-((S)-2-oxazol-2-yl-pyrrolidin-1-yl)-1,3-dihydroindol-2-one], the inhibition constant Ki was 10 to 100 nM.

In the case of `COc1ccc(S(=O)(=O)N2C(=O)C(c3ccc(CN4CCNC(=O)C4)cc3OC)(N3CCC[C@H]3c3ncco3)c3cc(Cl)ccc32)cc1` (stereo partly drawn) [Example 138, 5-Chloro-1-(4-methoxybenzenesulfonyl)-3-[2-methoxy-4-(3-oxopiperazin-1-ylmethyl)phenyl]-3-((S)-2-oxazol-2-yl-pyrrolidin-1-yl)-1,3-dihydroindol-2-one], the Ki fell in the range of 10 to 100 nM.

The compound `COc1ccc(S(=O)(=O)N2C(=O)C(c3cc(CNC(C)(C)C)ccc3OC)(N3CCC[C@H]3c3ncco3)c3cc(Cl)ccc32)cc1` (stereo partly drawn) [Example 139, 5-Chloro-3-[5-(tert-butylaminomethyl)-2-methoxyphenyl]-1-(4-methoxybenzenesulfonyl)-3-((S)-2-oxazol-2-yl-pyrrolidin-1-yl)-1,3-dihydroindol-2-one] came in with a Ki of 10 to 100 nM.

`COc1ccc(S(=O)(=O)N2C(=O)C(N[C@@H](C)c3ncco3)(c3cc(CNCCO)ccc3OC)c3cc(Cl)ccc32)cc1` (stereo partly drawn) [Example 140, 5-Chloro-3-{5-[(2-hydroxyethylamino)methyl]-2-methoxyphenyl}-1-(4-methoxybenzenesulfonyl)-3-((S)-1-oxazol-2-yl-ethylamino)-1,3-dihydroindol-2-one] gave a Ki of under 10 nM.

Consider `COc1ccc(CN2CCN(C)CC2)cc1C1(N2CCC[C@H]2c2ncco2)C(=O)N(S(=O)(=O)c2ccc(OC(F)(F)F)cc2)c2ccc(Cl)cc21` (stereo partly drawn) [Example 141, 5-Chloro-3-[2-methoxy-5-(4-methylpiperazin-1-ylmethyl)phenyl]-3-((S)-2-oxazol-2-yl-pyrrolidin-1-yl)-1-(4-trifluoromethoxybenzenesulfonyl)-1,3-dihydroindol-2-one], for which the Ki was in the range of 100 to 1000 nM.

For the compound `COc1ccc(S(=O)(=O)N2C(=O)C(c3cc(CN4CCN(CCO)CC4)ccc3OC)(N3CCC[C@H]3c3ncco3)c3cc(C#N)ccc32)cc1` (stereo partly drawn) [Example 142, 5-Cyano-3-{5-[4-(2-hydroxyethyl)piperazin-1-ylmethyl]-2-methoxyphenyl}-1-(4-methoxybenzenesulfonyl)-3-((S)-2-oxazol-2-yl-pyrrolidin-1-yl)-1,3-dihydroindol-2-one], the inhibitory constant (Ki) is under 10 nM.

`COc1ccc(S(=O)(=O)N2C(=O)C(c3cc(CN4CCNC(=O)C4)ccc3OC)(N3CCC[C@H]3c3ncco3)c3cc(C#N)ccc32)cc1` (stereo partly drawn) [Example 143, 5-Cyano-1-(4-methoxy-benzenesulfonyl)-3-[2-methoxy-5-(3-oxo-piperazin-1-ylmethyl)phenyl]-3-((S)-2-oxazol-2-yl-pyrrolidin-1-yl)-1,3-dihydroindol-2-one] returned a Ki of under 10 nM.

Turning to `COc1ccc(S(=O)(=O)N2C(=O)C(c3cc(CN4CCCN(C)CC4)ccc3OC)(N3CCC[C@H]3c3ncco3)c3cc(C#N)ccc32)cc1` (stereo partly drawn) [Example 144, 5-Cyano-1-(4-methoxybenzenesulfonyl)-3-[2-methoxy-5-(4-methyl-[1,4]diazepan-1-ylmethyl)phenyl]-3-((S)-2-oxazol-2-yl-pyrrolidin-1-yl)-1,3-dihydroindol-2-one], the Ki is under 10 nM.

`COc1ccc(CN2CCN(C)CC2)cc1C1(N2CCC[C@H]2c2ncco2)C(=O)N(S(=O)(=O)c2ccc(OC(F)F)cc2)c2ccc(Cl)cc21` (stereo partly drawn) [Example 145, 5-Chloro-1-(4-difluoromethoxybenzenesulfonyl)-3-[2-methoxy-5-(4-methylpiperazin-1-ylmethyl)phenyl]-3-((S)-2-oxazol-2-yl-pyrrolidin-1-yl)-1,3-dihydroindol-2-one] had a Ki of 10 to 100 nM.

The compound `COc1ccc(S(=O)(=O)N2C(=O)C(c3ccc(CN4CCOCC4)cc3OC)(N3CCC[C@H]3c3ncco3)c3cc(Cl)ccc32)cc1` (stereo partly drawn) [Example 146, 5-Chloro-1-(4-methoxybenzenesulfonyl)-3-(2-methoxy-4-(morpholin-4-ylmethyl)phenyl)-3-((S)-2-oxazol-2-yl-pyrrolidin-1-yl)-1,3-dihydroindol-2-one] came in with a Ki of 10 to 100 nM.
